Reference: patent US20060127310A1, “Amplification of biotin-mediated targeting” (priority 2002, published 2006)

Columns and labels:
P815 tumour cells = conditions: mice bearing P815 tumour; 5 mg/kg Rhodamine conjugated to HPMA intraperitoneally; six hours after injection; FIG. 1
Description: For tumour accumulation studies, various strains of mice bearing a variety of tumours were injected intraperitoneally with 5 mg/kg Rhodamine conjugated to the HPMA polymers. Six hours after injection, the mice were sacrificed, their tumours removed and cryo-embedded before cryostatic sectioning. The level of accumulation of the Rhodamine-HPMA was determined by fluorescent microscopy using a Zeiss microscope equiped with Axioplan software. […] Blue staining is BisBenzamide staining of cell nuclei.

O157 = test: Uptake of Rhodamine-HPMA polymers into tumour cell lines; assay type: cell-based; design: key: −: Uptake was determined on a relative scale; +/−: Uptake was determined on a relative scale; +: Uptake was determined on a relative scale; ++: Uptake was determined on a relative scale; +++: Uptake was determined on a relative scale; conditions: O157, Balb/C, Bcell Lymph; 5 hours at 37° C.
Description: (§1) Cells from various tumour cell lines were allowed to grow for 2 days on glass slides incubated in appropriate media at 37° C. in 5% CO2. […] Cells were incubated for a further 5 hours at 37° C. in 5% CO2. At this time the media was removed and uptake into the cells was assessed by fluorescent microscopy of internalization of the rhodamine fluorophore. Uptake was determined on a relative scale.

B16 = test: as above; assay type: cell-based; conditions: B16, C57/BI, Melanoma; 5 hours at 37° C.
Description: as §1

ID8 = test: as above; assay type: cell-based; conditions: ID8, C57/BI, Ovarian; 5 hours at 37° C.
Description: as §1

L1210FR = test: as above; assay type: cell-based; conditions: DBA/2, Leukemia, 5 hours at 37° C.
Description: as §1

HCT-116 = test: as above; assay type: cell-based; conditions: HCT-116, Balb/C-Nu, Colon Carcin; 5 hours at 37° C.
Description: as §1

4T1 = test: as above; assay type: cell-based; conditions: 4T1, Balb/C, Breast; 5 hours at 37° C.
Description: as §1

Colo-26 = test: as above; assay type: cell-based; conditions: Colo-26, Balb/C, Colon Carcin; 5 hours at 37° C.
Description: as §1

LL-2 = test: as above; assay type: cell-based; conditions: LL-2, C57/BI, Lung; 5 hours at 37° C.
Description: as §1

RENCA = test: as above; assay type: cell-based; conditions: Balb/C, Renal cell, 5 hours at 37° C.
Description: as §1

M109 = test: as above; assay type: cell-based; conditions: M109, Balb/C, Lung; 5 hours at 37° C.
Description: as §1

Ovcar = test: as above; assay type: cell-based; conditions: Ovarian, 5 hours at 37° C.
Description: as §1

Ov 2008 = test: as above; assay type: cell-based; conditions: Ov 2008, Balb/C-Nu, Ovarian; 5 hours at 37° C.
Description: as §1

MMT060562 = test: as above; assay type: cell-based; conditions: MMT060562, Balb/C, Breast; 5 hours at 37° C.
Description: as §1

L1210 = test: as above; assay type: cell-based; conditions: L1210, DBA/2, Leukemia; 5 hours at 37° C.
Description: as §1

BW5147 = test: as above; assay type: cell-based; conditions: BW5147, AKR/J, Lymphoma; 5 hours at 37° C.
Description: as §1

P815 = test: as above; assay type: cell-based; conditions: P815, DBA/2, Mastocytoma; 5 hours at 37° C.
Description: as §1

JC = test: as above; assay type: cell-based; conditions: Balb/C, Breast, 5 hours at 37° C.
Description: as §1

Rhodamine-HPMA polymer
accumulation: Level of accumulation / polymer uptake by P815 tumour cells (fluorescent microscopy of cryostat sections) (P815 tumour cells)
+/−: Uptake into the cells (internalization of the rhodamine fluorophore, fluorescent microscopy), relative scale (O157) | Uptake into the cells (internalization of the rhodamine fluorophore, fluorescent microscopy), relative scale (BW5147)
+: Uptake into the cells (internalization of the rhodamine fluorophore, fluorescent microscopy), relative scale (HCT-116)
−: Uptake into the cells (internalization of the rhodamine fluorophore, fluorescent microscopy), relative scale (B16) | Uptake into the cells (internalization of the rhodamine fluorophore, fluorescent microscopy), relative scale (ID8) | Uptake into the cells (internalization of the rhodamine fluorophore, fluorescent microscopy), relative scale (L1210FR) | Uptake into the cells (internalization of the rhodamine fluorophore, fluorescent microscopy), relative scale (4T1) | Uptake into the cells (internalization of the rhodamine fluorophore, fluorescent microscopy), relative scale (Colo-26) | Uptake into the cells (internalization of the rhodamine fluorophore, fluorescent microscopy), relative scale (LL-2) | Uptake into the cells (internalization of the rhodamine fluorophore, fluorescent microscopy), relative scale (RENCA) | Uptake into the cells (internalization of the rhodamine fluorophore, fluorescent microscopy), relative scale (M109) | Uptake into the cells (internalization of the rhodamine fluorophore, fluorescent microscopy), relative scale (Ovcar) | Uptake into the cells (internalization of the rhodamine fluorophore, fluorescent microscopy), relative scale (Ov 2008) | Uptake into the cells (internalization of the rhodamine fluorophore, fluorescent microscopy), relative scale (MMT060562) | Uptake into the cells (internalization of the rhodamine fluorophore, fluorescent microscopy), relative scale (L1210) | Uptake into the cells (internalization of the rhodamine fluorophore, fluorescent microscopy), relative scale (P815) | Uptake into the cells (internalization of the rhodamine fluorophore, fluorescent microscopy), relative scale (JC)
